Several values for one entry are separate records, joined by “and”; a condition that tells them apart may be missing. Equal values may be shown once.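 Method: 48-hour compound exposure of cells in 96-well plates, five concentrations, linear interpolation of endpoints. GI50 marks 50% less growth. TGI: total growth inhibition.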 A value given as a limit tells only on which side of the number the result lay.

The subject of the assay is MDA-MB-468 breast. Put plainly: growth of human tumour cells (NCI), 48 h.
`CCN(CC)c1ccc(/C=N/NC(=O)c2ccc(NS(C)(=O)=O)cc2)cc1`: the GI50 was 0.358 µM and the TGI turned out to be 3.81 µM.
In the case of `COC(=O)Nc1nc2ccc(Oc3cccc(NC(=O)Nc4cc(C(F)(F)F)ccc4F)c3)cc2[nH]1`, the GI50 was 7.87 µM and the TGI was above 23.1 µM.
Taken in the same sequence, the figures for `CC1=C(CCC(C)NCc2ccc(OCCCN3CCCCC3)cc2)C(C)(C)CCC1` (stereo unspecified) were 1.53 µM and 3.12 µM.
In the case of `Cc1[nH]c2ccc(F)cc2c1-c1nc2c3cccnc3c3ncccc3c2[nH]1`, the GI50 is 0.201 µM and the TGI came to 0.787 µM.
For `NC(=O)c1ccc(-c2nc(-c3ccc4c(c3)OCO4)c(-c3ccccn3)[nH]2)cc1`, the GI50 was > 25 µM and 21.6 µM; the TGI was > 25 µM and 57 µM.
As to `CCOC(=O)c1cc2c(n1Cc1cc(OC)c(OC)c(OC)c1)-c1oncc1CCC2`, the GI50 is 0.666 µM and the TGI was above 83.6 µM.
For the molecule `N#Cc1c(NC(=O)c2ccc(F)c(Cl)c2)sc2c1CCC(=O)C2`, the GI50 was 0.387 µM and the TGI was determined as 1.95 µM.
For `COC(=O)c1cc2ccccc2c2c3c(ccc12)OCO3`, the GI50 was 48.8 µM and the TGI is above 1000 µM.
On to `Cn1cc(-c2csc(-c3cn(CCCN4CCCCC4)c4ccccc34)n2)c2cccnc21`, for which the GI50 is 1.87 µM and the TGI came to 3.74 µM.
The like results for `Cc1cnc(CNC(=O)c2c(=O)c3ccc(N4CCCN(C)CC4)nc3n3c2sc2ccccc23)cn1` were, in that order, 15.7 µM and 34.8 µM.
For the molecule `COc1ccccc1CNCCCN1C(=O)c2ccc3c4c(ccc(c24)C1=O)C(=O)N(CCCN)C3=O`, the GI50 was 0.333 µM and the TGI came to 1.36 µM.
On to `Nc1ncnc2c1c(-c1ccc(Oc3ccccc3)cc1)nn2C[C@@H]1SSC[C@H]1O`, for which the GI50 is 0.349 µM and the TGI was 2.61 µM.
With `Nc1ccccc1C#C/C=C\C#Cc1cccc(O)c1`, the GI50 was 1.38 µM and the TGI came out at 20.4 µM.
Turning to `Cc1ccc2c(n1)C(=O)C(Cl)=C(Nc1cccc(C(F)(F)F)c1)C2=O`, the GI50 was 1.77 µM and the TGI amounted to 3.66 µM.
For the molecule `C=C1CC[C@@H]2[C@](C)(COC(C)=O)[C@H](OC(C)=O)CC[C@@]2(C)[C@@H]1CC(Nc1ccc(S(=O)(=O)Nc2ccc(Cl)nn2)cc1)C1=CCOC1=O` (stereo partly specified), the GI50 is 1.32 µM and the TGI is 3.37 µM.
Take `O=c1c(O)c(-c2ccc(O)c(O)c2)oc2cc(O)cc(O)c12`: the GI50 is 6.67 µM and the TGI is 47.2 µM.
On to `O=[N+]([O-])c1ccc(N=Nc2ccc(O)c3ccccc23)cc1`, for which the GI50 is 3.26 µM and the TGI amounted to 30.6 µM.
In the case of `CCC[CH2][Sn]1([CH2]CCC)[O]C2C(CO)OC(n3ccc(N)nc3=O)C2[O]1` (stereo unspecified), the GI50 is 0.471 µM and the TGI was 2 µM.
The like results for `Cc1[nH]c(=O)nc(Nc2ccc(Cl)cc2)c1C(=O)N1CCN(CCO)CC1` were, in that order, 34.8 µM and above 100 µM.
Taken in the same sequence, the figures for `Nc1c(C(=O)c2cccc(C#CCO)c2)cnn1-c1ccc(F)cc1` were above 25 µM and above 25 µM.
The like results for `N#CSCc1ccc(Cl)c(CSC#N)c1` were, in that order, 0.129 µM and 32.6 µM.
With `[Cl][Ru].c1ccc(-c2cccc(-c3ccccn3)n2)nc1.c1ccc(-c2ccnc3c2ccc2c(-c4ccccc4)ccnc23)cc1`, the GI50 is 1.31 µM and the TGI turned out to be 3.68 µM.
Taken in the same sequence, the figures for `CC(C)CCNCC(O)Cn1c2ccccc2c2ccccc21` (stereo unspecified) were 1.95 µM and 4.35 µM.
For `COC(=O)C1=C(C)NC(C)=C(C(=O)OCC(C)C)C1c1ccccc1[N+](=O)[O-]` (stereo unspecified), the GI50 was 2.83 µM and the TGI is 9.63 µM.
Regarding `O=C1C(SCCO)=C(SCCO)C(=O)N1c1ccc(-c2ccccc2)cc1`, the GI50 was 0.534 µM and the TGI turned out to be 1.5 µM.
With `Cc1nn(-c2ccc([N+](=O)[O-])cc2)c2ncnc(N/N=C/c3ccccc3O)c12`, the GI50 was 1.09 µM and the TGI worked out at 3.88 µM.
The like results for `COc1cnc2c(c1)C(=O)c1c-2n(CCCNC2=NCCS2)c(=O)c2cc(Cl)ccc12` were, in that order, 0.086 µM and 2.18 µM.
Taken in the same sequence, the figures for `COc1ccc(CC(=O)c2ccc(O)cc2O)cc1` were 56.7 µM and above 100 µM.
For the molecule `Cc1ccc(-c2nc3nc(-c4ccccc4)nc(N4CCNCC4)c3o2)cc1`, the GI50 is 0.31 µM and the TGI came to 1.23 µM.
`O=C1NOC(c2ccc(O)cc2)(c2ccc(O)cc2)c2ccccc21`: the GI50 was above 100 µM and the TGI was above 100 µM.
On to `CC(C)(C)c1[nH]nc2c1C(c1cc3ccccc3[nH]c1=O)Nc1cc(C(=O)OCc3ccccc3)ccc1N2` (stereo unspecified), for which the GI50 was 2.46 µM and the TGI was found to be 6.74 µM.
Regarding `c1ccc2[nH]c(-c3cc(-c4ccc5c(c4)OCO5)n[nH]3)nc2c1`, the GI50 was 3.57 µM and the TGI was 17.2 µM.
Take `Nc1c(C(=O)c2cccc(-c3cccnc3)c2)cnn1-c1ccc(F)cc1F`: the GI50 is 2.97 µM and the TGI was above 25 µM.
Turning to `COc1ccc(C(=O)/C=C/c2cccc(Nc3ccnc4cc(Cl)ccc34)c2)cc1`, the GI50 is 0.576 µM and the TGI came out at 3.38 µM.
With `CCN1C(=O)N(CC)C2C1NN=c1s/c(=C\c3ccccn3)c(=O)n12` (stereo unspecified), the GI50 is 0.523 µM and the TGI turned out to be 5.67 µM.
Turning to `O=C(Nc1ccc(Oc2cccc(F)c2)c(Cl)c1)c1cnccn1`, the GI50 was 0.834 µM and the TGI was 4.99 µM.
Turning to `Cc1ccc(-c2csc(NC(=O)N3CCN(c4cc5c(cc4F)c(=O)c(C(=O)O)cn5C4CC4)CC3)n2)cc1`, the GI50 is 1.29 µM and the TGI amounted to 8.17 µM.
In the case of `Cc1nn(C)c(COc2ccc(N3CCN(S(=O)(=O)N(C)C)CC3)cc2)c1-c1cccc2c(CCCOc3cccc4ccccc34)c(C(=O)O)n(CCN3CCOCC3)c12`, the GI50 was 1.91 µM and the TGI amounted to 5.36 µM.
`COc1cc(OC)c(C(=O)/C=C/c2cccc(C#N)c2)c(OC)c1`: the GI50 was 0.792 µM and the TGI came out at 2.46 µM.
`NC(=O)Nc1cc(-c2cccc(F)c2)sc1C(=O)N[C@H]1CCCNC1`: the GI50 was 0.591 µM and 0.398 µM; the TGI was 2.35 µM and 1.64 µM.
For the molecule `Cc1ccc(C(=O)NC2CCC2)cc1-c1ccc(C(=O)NCC2CC2)cc1`, the GI50 was above 17.2 µM and the TGI was above 25 µM.
For `O1[As]2O[As]3O[As]1O[As](O2)O3`, the GI50 is 0.216 µM and the TGI is 1.26 µM.
With `CC(C)=CCc1c2c(c(O)c3c1O[C@]14C(=C[C@@H]5C[C@H]1C(C)(C)O[C@@]4(C/C=C(/C)C(=O)O)C5=O)C3=O)CC(O)C(C)(C)O2` (stereo partly specified), the GI50 is 12.1 µM and the TGI came to 27.6 µM.
As for `COc1ccc(Cl)c(Nc2nc3ccccc3nc2NS(=O)(=O)c2cccc(NC(=O)C(C)(C)N)c2)c1`, the GI50 was 2.63 µM and 1.62 µM; the TGI was 14.8 µM and > 10 µM.
`CC[C@H](CO)Nc1nc(NCc2ccccc2)c2ncn(C(C)C)c2n1`: the GI50 was 15.8 µM and the TGI is 33.9 µM.
Consider `Oc1cccc2ccc(-c3nnc(SCc4ccc(O)c5ncccc45)o3)nc12`, for which the GI50 is 0.986 µM and the TGI turned out to be 8.49 µM.
For `O=C1c2ccc3c4c(ccc(c24)C(=O)N1CCCNCc1ccccc1Cl)C(=O)N(CCCNCc1ccccc1Cl)C3=O`, the GI50 is 0.124 µM and the TGI was found to be 0.352 µM.
Take `COc1ccc(C2=CC(c3ccc(OC)cc3Br)N3C=CSC3=N2)cc1` (stereo unspecified): the GI50 was 2.65 µM and the TGI turned out to be 10 µM.
The like results for `COc1ccc(C2C(C#N)=C(N)Oc3c2sc2ccc(C)cc32)cc1` (stereo unspecified) were, in that order, 2.42 µM and 9.74 µM.
Take `CN(C)c1ccc(C(=NO)c2ccc(N(C)C)cc2)cc1`: the GI50 is 0.716 µM and the TGI is 4.43 µM.
For `C#CCNCCN1C(=O)c2ccc3c4c(ccc(c24)C1=O)C(=O)N(CCNCC#C)C3=O`, the GI50 is 2.25 µM and the TGI is 10.4 µM.
Regarding `Cc1nn(-c2ccc(Cl)cc2)c2nc3c(nc12)C(=O)C(=O)c1ccccc1-3`, the GI50 was 13.9 µM and the TGI is above 100 µM.
Turning to `COc1ccc(/C=C(\C(=O)NCc2cccnc2)S(=O)(=O)c2ccccc2)cc1OC`, the GI50 was 1.57 µM and the TGI was 5.27 µM.
